We go through 32 molecules from patent US8557848B2, “4,5-ring annulated indole derivatives for treating or preventing of HCV and related viral infections” (Merck Sharp & Dohme Corp., priority 2006, dated 2013).

Assay [1] has as its target T1, HCV NS5B polymerase (NS5BΔCT21, from HCV-Con 1 isolate, genotype 1b) (Hepatitis C virus genotype 1b, UniProt Q9WMX2).
T1 construct: A soluble C-terminal 21-amino acid truncated NS5B enzyme form; polyhistidine (C); made in house; host or cells: Escherichia coli
Briefly: HCV NS5B Polymerase Inhibition Assay. In kind it is biochemical. The source says:
A chemically synthesized 75-mer version, designated DCoH75, whose sequence matches the 3′-end of D-RNA, and DCoH75ddC, where the 3′-terminal cytidine of DCoH75 is replaced by dideoxycytidine, were used for assaying the NS5B enzyme activity as described in Ferrari et al., 12th International Symposium on HCV and Related Viruses, P-306 (2005). The sequence of the template RNA was: 5′-UGUGCCGGUCUUUCUGAACGGGAUAUAAACCUGGCCAGCUUCAUCGAACAAGUUGCCGUGUCUAUGACAUAGAUC-3′. A soluble C-terminal 21-amino acid truncated NS5B enzyme form (NS5BΔCT21, from HCV-Con 1 isolate, genotype 1b, Genbank accession number AJ238799) was produced and purified from Escherichia coli as C-terminal polyhistidine-tagged fusion protein as described in Ferrari et al., J. Virol. 73:1649-1654 (1999). A typical assay contained 20 mM Hepes pH 7.3, 10 mM MgCl2, 60 mM NaCl, 100 μg/ml BSA, 20 units/ml RNasin, 7.5 mM DTT, 0.1 μM ATP/GTP/UTP, 0.026 μM CTP, 0.25 mM GAU, 0.03 μM RNA template, 20 μCi/ml [^33P]-CTP, 2% DMSO, and 30 or 150 nM NS5B enzyme. Reactions were incubated at 22° C. for 2 hours, then stopped by adding 150 mM EDTA, washed in DE81 filter plate in 0.5M di-basic sodium phosphate buffer, pH 7.0, and counted using Packard TopCount after the addition of scintillation cocktail. Polynucleotide synthesis was monitored by the incorporation of radiolabeled CTP. The effect of the Compounds of Formula (I) on the polymerase activity was evaluated by adding various concentrations of a Compound of Formula (I), typically in 10 serial 2-fold dilutions, to the assay mixture. The starting concentrations ranged from 200 μM to 1 μM. An IC50 value for the inhibitor, defined as the compound concentration that provides 50% inhibition of polymerase activity, was determined by fitting the cpm data to the Hill equation Y=100/(1+10^((LogIC50-X)*HillSlope)), where X is the logarithm of compound concentration, and Y is the % inhibition. Ferrari et al., 12th International Symposium on HCV and Related Viruses, P-306 (2005) described in detail this assay procedure. It should be noted that such an assay as described is exemplary and not intended to limit the scope of the invention. The skilled practitioner can appreciate that modifications including but not limited to RNA template, primer, nucleotides, NS5B polymerase form, buffer composition, can be made to develop similar assays that yield the same result for the efficacy of the compounds and compositions described in the invention.
NS5B polymerase inhibition data for selected Compounds of Formula (I) is provided below in Table 2, wherein the compound numbers correspond to the compound numbering set forth in the above specification.

Assay [2] relates to HCV replicon cells (replicon RNA level). Briefly: Cell-Based HCV Replicon Assay. Particulars: Hepatitis C virus, 72 h; replicon RNA level by real time PCR (Taqman), cells harvested on day 3; read-out: EC50. As to the method:
To measure cell-based anti-HCV activity of the a Compound of Formula (I), replicon cells were seeded at 5000 cells/well in 96-well collagen I-coated Nunc plates in the presence of the Compound of Formula (I). Various concentrations of a Compound of Formula (I), typically in 10 serial 2-fold dilutions, were added to the assay mixture, with the starting concentration ranging from 250 μM to 1 μM. The final concentration of DMSO was 0.5%, fetal bovine serum was 5%, in the assay media. Cells were harvested on day 3 by the addition of 1× cell lysis buffer (Ambion cat #8721). The replicon RNA level was measured using real time PCR (Taqman assay). The amplicon was located in 5B. The PCR primers were: 5B.2F, ATGGACAGGCGCCCTGA; 5B.2R, […]; the probe sequence was FAM-labeled CACGCCATGCGCTGCGG. GAPDH RNA was used as endogenous control and was amplified in the same reaction as NS5B (multiplex PCR) using primers and VIC-labeled probe recommended by the manufacturer (PE Applied Biosystem). The real-time RT-PCR reactions were run on ABI PRISM 7900HT Sequence Detection System using the following program: 48° C. for 30 min, 95° C. for 10 min, 40 cycles of 95° C. for 15 sec, 60° C. for 1 min. The ΔCT values (CT5B-CTGAPDH) were plotted against the concentration of test compound and fitted to the sigmoid dose-response model using XLfit4 (MDL). EC50 was defined as the concentration of inhibitor necessary to achieve ΔCT=1 over the projected baseline; EC90 the concentration necessary to achieve ΔCT=3.2 over the baseline. Alternatively, to quantitate the absolute amount of replicon RNA, a standard curve was established by including serially diluted T7 transcripts of replicon RNA in the Taqman assay. All Taqman reagents were from PE Applied Biosystems. Such an assay procedure was described in detail in e.g. Malcolm et al., Antimicrobial Agents and Chemotherapy 50: 1013-1020 (2006).
HCV Replicon assay data for selected Compounds of Formula (I) is provided below in Table 1, wherein the compound numbers correspond to the compound numbering set forth in the above specification.
On the technique in general: A replicon is a self-replicating genome or part of one, used to study replication in cells.

The mark [3] stands for this setting: NS5B polymerase inhibition, [33P]-CTP incorporation, 22° C. for 2 hours, read-out: IC50.

SMILES strings stand for the structures. Like-named read-outs stand apart in the source and are kept apart here.

For the molecule `O=C(NS(=O)(=O)C1CC1)c1c(-c2ccc[nH]c2=O)c2c3occc3c(F)cc2n1Cc1ccc2[nH]c(=O)[nH]c2c1` [Compound 190], the IC50 (commonly the concentration at which inhibition is half-maximal) in assay [1] (setting [3]) was under 25 nM. Further, in assay [2], the EC50 (commonly the midpoint of the concentration-response curve) is under 500 nM.

As to `NC(=O)c1cnc(F)c(Cn2c(C(=O)O)c(-c3ccc[nH]c3=O)c3c4c(c(F)cc32)CCO4)c1` [Compound 113], the IC50 in assay [1] (setting [3]) was under 25 nM. The EC50 in assay [2] was under 500 nM.

In the case of `O=C(NS(=O)(=O)C1CC1)c1c(-c2ccc[nH]c2=O)c2c3occc3c(F)cc2n1Cc1cc([N+](=O)[O-])ccc1F` [Compound 198], the IC50 in assay [1] (setting [3]) was under 25 nM. The EC50 in assay [2] is under 500 nM.

`Nc1n[nH]c2cc(F)c(Cn3c(C(=O)O)c(-c4ccc[nH]c4=O)c4c5occc5c(F)cc43)cc12` [Compound 80] came in with an IC50 in assay [1] of under 25 nM. In addition, the EC50 in assay [2] was under 500 nM.

On to `O=C(NS(=O)(=O)C1CC1)c1c(-c2ccc[nH]c2=O)c2c3occc3ccc2n1Cc1ccccc1F` [Compound 65], for which the half-inhibitory concentration (IC50) in assay [1] (setting [3]) was under 25 nM. In addition, the EC50 in assay [2] was under 500 nM.

`CS(=O)(=O)NC(=O)c1c(-c2ccc[nH]c2=O)c2c3occc3c(F)cc2n1Cc1ccc2[nH]c(N)nc2c1` [Compound 169]: the IC50 in assay [1] (setting [3]) is under 25 nM. The EC50 in assay [2] is under 500 nM.

For `Nc1cc(Cn2c(C(=O)O)c(-c3ccc[nH]c3=O)c3c4occc4c(F)cc32)ccn1` [Compound 77], the IC50 in assay [1] (setting [3]) was under 25 nM. Further, the EC50 in assay [2] is under 500 nM.

As for `CS(=O)(=O)NC(=O)c1c(-c2ccc[nH]c2=O)c2c3occc3c(F)cc2n1Cc1csc(C(N)=O)c1` [Compound 165], the IC50 in assay [1] (setting [3]) is under 25 nM. Besides, the EC50 in assay [2] was under 500 nM.

On to `CS(=O)(=O)NC(=O)c1c(-c2ccc[nH]c2=O)c2c3ncsc3ccc2n1Cc1ccccc1F` [Compound 50], for which the IC50 in assay [1] (setting [3]) was under 25 nM. Further, the EC50 in assay [2] was under 500 nM.

In the case of `Cc1cccc(Cn2c(C(=O)NS(=O)(=O)C(C)C)c(-c3ccc[nH]c3=O)c3c4occc4ccc32)c1F` [Compound 158], in assay [1] (setting [3]), the IC50 was under 25 nM. Further, in assay [2], the EC50 lay within 500 to 1500 nM.

Regarding `O=C(O)c1c(-c2ccc[nH]c2=O)c2c3occc3c(F)cc2n1Cc1ccccc1F` [Compound 79], in assay [1] (setting [3]), the IC50 is under 25 nM. Besides, the EC50 in assay [2] was under 500 nM.

With `Cc1c[nH]c(=O)cc1Cn1c(C(=O)O)c(-c2ccc[nH]c2=O)c2c3occc3c(F)cc21` [Compound 83], the IC50 in assay [1] (setting [3]) was under 25 nM. Besides, in assay [2], the half-maximal effective concentration (EC50) is under 500 nM.

Consider `O=C(NC1CC1)c1ccc(F)c(Cn2c(C(=O)O)c(-c3ccc[nH]c3=O)c3c4occc4c(F)cc32)c1` [Compound 141], for which the IC50 in assay [1] (setting [3]) is under 25 nM. Further, the EC50 in assay [2] is over 1500 nM.

In the case of `Nc1cc(Cn2c(C(=O)O)c(-c3ccc[nH]c3=O)c3c4ncsc4ccc32)ccn1` [Compound 14], the IC50 in assay [1] (setting [3]) is under 25 nM. Besides, the EC50 in assay [2] lay within 500 to 1500 nM.

`Nc1nc2cc(Cn3c(C(=O)O)c(-c4ccc[nH]c4=O)c4c5occc5c(F)cc43)ccc2[nH]1` [Compound 101]: the IC50 in assay [1] (setting [3]) is under 25 nM. For the same molecule, in assay [2], the EC50 is under 500 nM.

In the case of `Cc1ccc2cc(Cn3c(C(=O)O)c(-c4ccc[nH]c4=O)c4c5occc5c(F)cc43)c(Cl)nc2c1` [Compound 139], the IC50 in assay [1] (setting [3]) is under 25 nM. Also, in assay [2], the EC50 was under 500 nM.

Regarding `O=C(O)c1c(-c2ccccc2F)c2c3occc3c(F)cc2n1Cc1cc2ccccc2nc1Cl` [Compound 128], the IC50 in assay [1] (setting [3]) was over 100 nM. The EC50 in assay [2] is under 500 nM.

On to `NC(=O)c1cc(Cn2c(C(=O)NS(=O)(=O)C3CC3)c(-c3ccc[nH]c3=O)c3c4occc4c(F)cc32)cs1` [Compound 183], for which the IC50 in assay [1] (setting [3]) is under 25 nM. For the same molecule, the EC50 in assay [2] was under 500 nM.

For `Cc1ccccc1Cn1c(C(=O)NS(C)(=O)=O)c(-c2ccc[nH]c2=O)c2c3occc3ccc21` [Compound 61], the IC50 in assay [1] (setting [3]) was under 25 nM. For the same molecule, the EC50 in assay [2] is under 500 nM.

As to `CS(=O)(=O)NC(=O)c1c(-c2ccc[nH]c2=O)c2c3occc3ccc2n1Cc1ccccc1Cl` [Compound 67], in assay [1] (setting [3]), the IC50 is under 25 nM. Besides, the EC50 in assay [2] is under 500 nM.

In the case of `O=C(NS(=O)(=O)C1CC1)c1c(-c2ccc[nH]c2=O)c2c3occc3c(F)cc2n1Cc1cc(F)ccc1F` [Compound 177], the IC50 in assay [1] (setting [3]) was under 25 nM. The EC50 in assay [2] was under 500 nM.

For the molecule `CS(=O)(=O)NC(=O)c1c(-c2ccc[nH]c2=O)c2c3ccoc3ccc2n1Cc1ccc(F)cc1F` [Compound 9], the IC50 in assay [1] (setting [3]) is under 25 nM. Besides, the EC50 in assay [2] was over 1500 nM.

In the case of `Cn1cc(F)c(Cn2c(C(=O)O)c(-c3ccc[nH]c3=O)c3c4occc4c(F)cc32)cc1=O` [Compound 96], in assay [1] (setting [3]), the IC50 was under 25 nM. Further, the EC50 in assay [2] is under 500 nM.

For `Cc1cccc(Cn2c(C(=O)NS(C)(=O)=O)c(-c3ccc[nH]c3=O)c3c4occc4c(F)cc32)c1F` [Compound 146], the IC50 in assay [1] (setting [3]) is under 25 nM. Besides, in assay [2], the EC50 was under 500 nM.

As to `CCc1coc2c1ccc1c2c(-c2ccc[nH]c2=O)c(C(=O)O)n1Cc1cc(F)ccc1F` [Compound 24], the IC50 in assay [1] (setting [3]) is over 100 nM. The EC50 in assay [2] is over 1500 nM.

On to `NC(=O)c1ccc(Cn2c(C(=O)O)c(-c3ccc[nH]c3=O)c3c4occc4c(F)cc32)cc1` [Compound 93], for which the IC50 in assay [1] (setting [3]) was under 25 nM. For the same molecule, the EC50 in assay [2] was under 500 nM.

With `CC(C)(C)C(=O)OCOC(=O)c1c(-c2cccn(COC(=O)C(C)(C)C)c2=O)c2c3occc3c(F)cc2n1Cc1cc(=O)n(COC(=O)C(C)(C)C)cc1F` [Compound 228], the IC50 in assay [1] is over 100 nM. In addition, the EC50 in assay [2] is under 500 nM.

For `O=C(NS(=O)(=O)C1CC1)c1c(-c2ccc[nH]c2=O)c2c3c(ccc2n1Cc1cc(F)ccc1F)CCO3` [Compound 164], the IC50 in assay [1] (setting [3]) is under 25 nM. The EC50 in assay [2] is under 500 nM.

Take `O=C(NS(=O)(=O)C1CC1)c1c(-c2ccc[nH]c2=O)c2c3occc3ccc2n1Cc1cc2ccccc2nc1Cl` [Compound 201]: in assay [1] (setting [3]), the IC50 is under 25 nM. Also, the EC50 in assay [2] was under 500 nM.

Regarding `CS(=O)(=O)NC(=O)c1c(-c2ccc[nH]c2=O)c2c3occc3c(F)cc2n1Cc1cc(C(=O)NC2CC2)ccc1F` [Compound 206], the IC50 in assay [1] (setting [3]) is under 25 nM. Further, the EC50 in assay [2] is 500 to 1500 nM.

In the case of `O=C(O)c1c(-c2ccc[nH]c2=O)c2c3occc3c(F)cc2n1Cc1ccc2[nH]c(=O)[nH]c2c1` [Compound 103], the IC50 in assay [1] (setting [3]) is under 25 nM. In assay [2], the EC50 is under 500 nM.

Consider `O=C(O)c1c(-c2ccc[nH]c2=O)c2c3occc3c(F)cc2n1Cc1cc(=O)[nH]c2ccccc12` [Compound 114], for which the IC50 in assay [1] is under 25 nM. Further, in assay [2], the EC50 is under 500 nM.
